Experimental data from article PMC7942396, “Drug Repurposing Screen for Compounds Inhibiting the Cytopathic Effect of SARS-CoV-2” (Frontiers in Pharmacology, 2021).
Structures can show the parent of a compound that is named as a salt. Where two headings read alike, the source gives them in different places. Where a SMILES comes first, the peptide text is derived from it. [ ]: non-standard residue; d: D form. Nle = CCCC[C@H](N)C(=O)O

Legend:
[1] = system: SARS-CoV-2 (USA_WA1/2020); assay: microbe, parasite or virus in culture; format: cell-based; conditions: for EC50: read-out: CPE EC50
[2] = SARS-CoV-2 CPE assay, Vero E6 cells, confirmed anti-SARS-CoV-2 compounds
[3] = SARS-CoV-2 CPE assay, Vero E6 cells, efficacy
[4] = cytotoxicity counter-assay, Vero E6 cells without virus
[5] = read-out: Cytotox CC50, cytotoxicity counter-assay, Vero E6 cells without virus
[6] = SARS-CoV-2 CPE assay, Vero E6 cells
[7] = […], DMSO 0%, no-virus control 100%, hit confirmation
[8] = Vero E6 cells without virus, 72 h

Row | SMILES | EC50 [1, 2] [µM] | CPE % Efficacy [1, 3] [%] | % Cytotox (Vero E6 cells; [4]) [%] | CC50 (Vero E6 cells; [5]) [µM] | further results
1 | O=C1NC(=O)c2cc(Nc3ccccc3)c(Nc3ccccc3)cc21 [DAPH] | 3.98 | 53.9 | 79.5 | 11.2 | –
2 | CCC(C)C(=O)OC12C(OC(C)=O)C(C)C3(O)C(C=C(CO)CC4(O)C(=O)C(C)=CC43)C1C2(C)C (stereo not shown) [NCGC00380715] | 0.98 | 45.0 | 0.0 | – | –
3 | Cc1ccc(C(=O)Nc2cccc(C(F)(F)F)c2)cc1Nc1nc(-c2cccnc2)nc2c1cnn2C [NVP-BHG712] | 2.51 | 123.5 | – | – | % Cytotox (Vero E6 cells): 58.4%; CC50 (Vero E6 cells): 3.98 µM
4 | Cl.Cl.O=S(=O)(c1cccc2ccccc12)n1ccc2ccc(N3CCN4CCCC4C3)cc21 (stereo not shown) [NPS ALX Compound 4a dihydrochloride] | – | – | 93.1 | 12.6 | CPE % Efficacy [1, 6]: 100.0%; EC50 [1, 6]: 12.6 µM
5 | CC(C)c1cccc2c(-c3ccccc3)cc(-c3ccc(-c4ccc(C(=O)O)cc4)[nH]3)nc12 [ER 50891] | 11.2 | 88.0 | 16.9 | 15.8 | –
6 | CCC(C)CNCC(=O)N1CCc2sccc2C1COc1cccc(C)c1 (stereo not shown) [RU-SKI 43] | – | – | 21.3 | – | CPE % Efficacy [1, 6]: 72.7%; EC50 [1, 6]: 14.1 µM
7 | O=C(CCC1CCN(Cc2ccccc2)CC1)c1ccc2c(c1)NCCCC2.O=C(O)/C=C/C(=O)O [Zanapezil fumerate] | 11.2 | 63.3 | 0.0 | – | –
8 | CO/C1=C\C(C)=C\[C@@H](C)[C@@H](O)[C@@H](C)C/C(C)=C/C=C/[C@H](OC)[C@@H]([C@@H](C)[C@@H](O)[C@H](C)[C@@]2(O)C[C@@H](O)[C@H](C)[C@@H](C(C)C)O2)OC1=O [Bafilomycin A1 from Streptomyces griseus] | 0.0113 | 69.3 | 58.6 | 0.1 | –
9 | CCC[C@@H](NC(=O)N1C(=O)C(CC)(CC)[C@@H]1Oc1ccc(C(=O)N2CCN(C)CC2)cc1)c1ccc2c(c1)OCO2 [DMP 777, reference compound] | – | – | – | – | CPE % Efficacy [1, 7]: 92.5%; EC50 [1]: 10 µM; % Cytotox (Vero E6 cells; [8]): <30%
10 | COc1cc2nc(N3CCCCC3)nc(NC3CCN(C)CC3)c2cc1OC [NCGC00185859] | 3.55 | 94.8 | 69.3 | 10 | –
11 | CCCC[C@@H](C=O)NC(=O)[C@H](CC(C)C)NC(=O)[C@H](CC(C)C)NC(C)=O [Calpain Inhibitor I, ALLN, reference compound] (Ac-Leu-Leu-[Nle]-aldehyde) | 0.0226 | 72.0 | 115.5 | 1.13 | CPE % Efficacy [1, 7]: 111.1%; EC50 [1]: 2 µM; % Cytotox (Vero E6 cells; [8]): <30%
12 | Cc1cccc(Nc2nc(N[C@@H]3CCCC[C@@H]3N)ncc2C(N)=O)c1 [PRT-060318] | 11.2 | 56.9 | 45.2 | 12.6 | –
13 | O=C(N[C@@H](c1ccccc1)[C@@H]1CCCCN1)c1cccc(C(F)(F)F)c1Cl [SSR-504734] | – | – | 15.7 | 7.94 | CPE % Efficacy [1, 6]: 31.7%; EC50 [1, 6]: 14.1 µM
14 | CO[C@@H]1[C@@H](O[C@@H]2O[C@H](C)[C@@H](O[C@H]3C[C@@](C)(O)[C@@H](O)[C@H](C)O3)[C@H](N(C)C)[C@H]2O)[C@@H](CC=O)C[C@@H](C)[C@@H](O[C@H]2CC[C@H](N(C)C)[C@@H](C)O2)/C=C/C=C/C[C@@H](C)OC(=O)C[C@H]1OC(C)=O [Spiramycin II] | – | – | 0.0 | – | CPE % Efficacy [1, 6]: 33.4%; EC50 [1, 6]: 14.1 µM
15 | O=C(NCCCCN1CCN(c2cccc(Cl)c2Cl)CC1)c1cc2ccccc2s1 [FAUC-365] | 4.47 | 36.5 | 35.5 | 12.6 | –
16 | COc1ccccc1Nc1nc(-c2sc(NC(C)=O)nc2C)cs1 [JNJ0966] | 11.2 | 38.6 | 61.5 | 11.2 | –
17 | Cc1cc(CN)cc(C)c1NC(=O)c1ccc(-c2cc(Cl)ccc2Cl)o1 [CYM50358] | 4.47 | 34.9 | 52.7 | – | –
18 | C/C=C(\C)C(=O)O[C@H]1C=C(CO)C(=O)[C@H](OC(C)=O)[C@H]1C(C)C [NCGC00180769] | 3.55 | 30.1 | 103.1 | 10 | –
19 | Cc1c(C(=O)Nc2cccc(C(F)(F)F)c2)cc(-c2ccccc2)n1CCCN1CCOCC1 [HC-067047] | 10 | 64.2 | 45.7 | – | –
20 | COc1cc(-n2cnc3cc(-c4ccc(Cl)cc4)sc3c2=O)ccc1OCCN1CCCC1 [GW 803430, reference compound] | – | – | – | – | CPE % Efficacy [1, 7]: 93.3%; EC50 [1]: 3.5 µM; % Cytotox (Vero E6 cells; [8]): <30%

Row | SMILES | EC50 [1, 2] [µM] | CPE % Efficacy [1, 3] [%] | % Cytotox (Vero E6 cells; [4]) [%] | CC50 (Vero E6 cells; [5]) [µM] | further results
21 | COc1ccc(C2CC(c3ccccc3)=NN2c2ccc(S(N)(=O)=O)cc2)cc1 (stereo not shown) [ML-141] | 8.91 | 65.2 | 23.8 | – | –
22 | CC[C@H](NC(=O)[C@H](CS(=O)(=O)CC1CC1)N[C@@H](c1ccc(F)cc1)C(F)(F)F)C(=O)C(=O)NC1CC1 [VBY-825, reference compound] | – | – | – | – | CPE % Efficacy [1, 7]: 97.8%; EC50 [1]: 0.14 µM; % Cytotox (Vero E6 cells; [8]): <30%
23 | COc1ccc(CN2CCN(CCCSc3cc(C(C)(C)C)c(O)c(C(C)(C)C)c3)CC2)c(OC)c1OC [S-15176 difumarate salt, reference compound] | – | – | – | – | CPE % Efficacy [1, 7]: 127.4%; EC50 [1]: 3.8 µM; % Cytotox (Vero E6 cells; [8]): <30%
24 | COc1ccc(C(C)(C)C)cc1CN[C@H]1C2CCN(CC2)[C@H]1C(c1ccccc1)c1ccccc1 [Maropitant] | 3.55 | 83.7 | 108.2 | – | –
25 | Cl.O=C1Nc2nc(-c3c(O)cccc3OCC3CC3)cc([C@@H]3CCCNC3)c2CO1 [Bay-65-1942 hydrochloride] | – | – | 23.5 | 11.2 | CPE % Efficacy [1, 6]: 53.9%; EC50 [1, 6]: 11.2 µM
26 | CCCCNc1ncc2c(-c3ccc(F)cc3)nn(CC3CCC(N)CC3)c2n1 (stereo not shown) [UNC-569] | 9.82 | 46.0 | 34.2 | 4.92 | –
27 | CCCCCCCCC(=O)N[C@H](CN1CCCC1)[C@H](O)c1ccc2c(c1)OCCO2 [Genz-123346 (free base), reference compound] | – | – | – | – | CPE % Efficacy [1, 7]: 99.4%; EC50 [1]: 10 µM; % Cytotox (Vero E6 cells; [8]): <30%
28 | NC(=O)c1cccc(-c2cc(Nc3ccc(OC(F)(F)F)cc3)ncn2)c1 [GNF-2] | – | – | 0.0 | – | CPE % Efficacy [1, 6]: 63.4%; EC50 [1, 6]: 11.2 µM
29 | CC(C)(O)CNc1ncc(-c2ccnc(Nc3ccncc3)n2)c(CC2CC2)n1 [VPS34 Inhibitor 1, reference compound] | – | – | – | – | CPE % Efficacy [1, 7]: 98.3%; EC50 [1]: 1.4 µM; % Cytotox (Vero E6 cells; [8]): <30%
30 | CN1CN(c2ccccc2)C2(CCN(CCCC(=O)c3ccc(F)cc3)CC2)C1=O.Cl [N-Methylspiperone hydrochloride, reference compound] | – | – | – | – | CPE % Efficacy [1, 7]: 80.0%; EC50 [1]: 4.5 µM; % Cytotox (Vero E6 cells; [8]): <30%
31 | CC(=O)O/N=C1\C(=O)N(Cc2cc(Cl)ccc2Cl)c2ccc(Cl)cc21 [LDN-57444] | 11.2 | 129.8 | – | – | % Cytotox (Vero E6 cells): 40.6%; CC50 (Vero E6 cells): 12.6 µM
32 | CCCCCCOc1ccc(C(=N)N(CCCC)CCCC)c2ccccc12.Cl [Bunamidine hydrochloride] | 4.47 | 84.9 | 109.2 | 11.2 | –
33 | CC(=O)OC1[C@H]2[C@@H](C[C@@H](C)[C@@H]3C=CC(=O)[C@@]13C)OC(=O)[C@@H]2C (stereo partly shown) [NCGC00385908] | 7.08 | 67.1 | 44.4 | 11.2 | –
34 | COc1cc2ncnc(Sc3nnc(C)s3)c2cc1OC [SKLB1002] | 3.55 | 73.0 | 34.8 | 7.08 | –
35 | COc1ccc(NS(=O)(=O)c2sc3ccc(Cl)cc3c2C)cc1N1CCNCC1 [SB 271046 hydrochloride, reference compound] | – | – | – | – | CPE % Efficacy [1, 7]: 107.5%; EC50 [1]: 10 µM; % Cytotox (Vero E6 cells; [8]): <30%
36 | NC(=O)c1ccccc1Nc1ccnc(Nc2cccc(O)c2)n1 [DB-07268] | 10 | 52.8 | 40.9 | 1 | –
37 | C[C@@H]1O[C@@H](O[C@H]2[C@H](OC(=O)[C@]34CCC(C)(C)C[C@H]3C3=CCC5[C@@]6(C)CC[C@H](O[C@@H]7O[C@H](CO[C@@H]8OC[C@H](O)[C@H](O)[C@H]8O)[C@@H](O)[C@H](O)[C@H]7O)C(C)(C)C6CC[C@@]5(C)[C@]3(C)C[C@H]4O)OC[C@@H](O)[C@@H]2O)[C@H](O)[C@H](O[C@@H]2OC[C@](O)(CO)[C@H]2O)[C@H]1O[C@@H]1OC[C@H](O)[C@H](O[C@@H]2OC[C@@H](O)[C@H](O)[C@H]2O)[C@H]1O (stereo partly shown) [NCGC00385743] | 0.95 | 59.8 | 67.2 | 2.14 | –
38 | CC(CN(C)C)CN1c2ccccc2Sc2ccccc21.CC(CN(C)C)CN1c2ccccc2Sc2ccccc21.O=C(O)C(O)C(O)C(=O)O (stereo not shown) [Trimeprazine tartrate] | – | – | 0.0 | – | CPE % Efficacy [1, 6]: 49.5%; EC50 [1, 6]: 12.6 µM
39 | CCc1ccccc1OC[C@@H](O)CN[C@H]1CCCc2ccccc21.Cl [SR 59230A hydrochloride] | – | – | 13.9 | 17.8 | CPE % Efficacy [1, 6]: 108.4%; EC50 [1, 6]: 11.2 µM
40 | COc1cc2c3cc1Oc1c(OC)c(OC)cc4c1[C@@H](Cc1ccc(O)c(c1)Oc1ccc(cc1)C[C@@H]3N(C)CC2)N(C)CC4 [Berbamine dihydrochloride] | 2.82 | 79.0 | 50.1 | 11.2 | –
